Literature values as cited in patent US20110015663A1, “Combination Therapies for the Treatment of Obesity” (priority 2009, published 2011).

Conditions: literature studies

Row | Compound | weight loss for drug compared with placebo
1 | CCCCCCCCCCC[C@@H](C[C@@H]1OC(=O)[C@H]1CCCCCC)OC(=O)[C@H](CC(C)C)NC=O [orlistat] | about 5 % of body weight
2 | CCN[C@@H](C)Cc1cccc(C(F)(F)F)c1 [dexfenfluramine] | about 5 % of body weight
3 | CC(C)(N)Cc1ccccc1 [phentermine] | about 5 % of body weight
4 | CC(C)CC(N(C)C)C1(c2ccc(Cl)cc2)CCC1 (stereo not drawn) [sibutramine] | about 5 % of body weight

Conditions: not given

Row | Compound | solubility in water
5 | G-2-beta-cyclodextrin | 147 % (w/v)
6 | triacetyl-beta-cyclodextrin | insoluble
